# Results taken from PubChem BioAssay AID1996.
# Details: buffer; pH 7.4; 200.0 µM
row,SMILES,solubility kinetic [mg/mL]
1,COc1ccc(NC(=S)NCCCN2CCCC2)cc1,> 0.044
2,CC(=O)N1CCN(S(=O)(=O)c2ccc(C)cc2)C1C (stereo not drawn),> 0.0424
3,N#Cc1ccc(C(=O)Nc2cccc(S(=O)(=O)NC3=NCCC3)c2)cc1,0.0237
4,NC(=O)C1CCCCc2c1[nH]c1ccc(Cl)cc21 (stereo not drawn),> 0.0394
5,O=C(c1ccc(Br)cc1)N1CCN(Cc2ccccc2)CC1,0.0389
6,COc1cccc(C(C)NC(=O)C2CCCC2)c1 (stereo not drawn),> 0.0371
7,N#CC1(NC(=O)Cn2cc(C(F)(F)F)ccc2=O)CCCC1,> 0.047
8,CN(C)c1ccc(S(=O)(=O)N2CCC(Cc3ccccc3)CC2)cn1,0.002
9,N#Cc1ccc(NC(=O)CCNC(=O)c2ccco2)cc1Cl,0.005
10,COC(=O)Nc1ccc(S(=O)(=O)Nc2ncccn2)cc1,> 0.0462
11,N#Cc1ccc(OCC(=O)N2CCCC2=O)cc1,> 0.0366
12,COc1cc(Cl)c(C)cc1NC(=O)CSc1nnc(CN2CCCC2)o1,> 0.0595
13,Cn1c(=O)c2c(nc3n2CCS3)n(C)c1=O,> 0.0357
14,CC(C)Oc1ccc(C(=O)NCCNC(=O)c2ccco2)cc1,> 0.0475
15,COc1ccc(N2C(=O)CC(N3CCCCC3)C2=O)cc1 (stereo not drawn),> 0.0433
16,CCOC(=O)c1sc(-c2ccc(Cl)cc2)nc1O,0.0408
17,Cc1cccnc1NC(=O)c1ccc2c(c1)NC(=O)C(C)S2 (stereo not drawn),> 0.047
18,O=Cc1ccc(Sc2ncccn2)o1,0.0242
19,Cc1ccc2nc(-c3ccc4c(c3)OCCO4)cn2c1,0.0351
20,Cc1ccc(C(=O)N[C@H](C(=O)NC2CCCCC2)C(C)C)cc1,0.008
21,CC(OC(=O)CC1CCCC1)C(=O)Nc1ccc(Cl)cn1 (stereo not drawn),0.0309
22,COc1cccc(C(C)NC(=O)c2ccncc2)c1 (stereo not drawn),> 0.0384
23,Cc1ccc(NC2=NCCCS2)cc1Cl,0.0284
24,CC(=O)Nc1ccc(/C=C(\C#N)C(N)=O)cc1,0.0168

row,SMILES,solubility kinetic [mg/mL]
1,CCOC(=O)c1c(NC(=O)NC(C)(C)C)sc2c1CCN(C)C2,0.0149
2,O=C1OCC(c2ccccc2)=C1c1ccccc1[N+](=O)[O-],> 0.0422
3,O=C(Nc1ccccc1)Nc1ccc(Oc2cccnc2)nc1,0.0205
4,O=C(Nc1nc2ccccc2[nH]1)c1ccccc1[N+](=O)[O-],> 0.0423
5,CC(Sc1nnc2ccccn12)C(=O)Nc1ccc(N2CCOCC2)cc1 (stereo not drawn),> 0.0575
6,CC(=O)c1c(C)n(CC(=O)NCc2ccco2)c2ccccc12,0.0185
7,NC(=O)C1CCN(CCS(=O)(=O)c2ccc(Cl)cc2)CC1,> 0.0496
8,N#CC1CCN(c2ncccc2[N+](=O)[O-])CC1,> 0.0348
9,O=S(=O)(NC1=NCCC1)c1ccc(F)cc1F,> 0.039
10,N#Cc1c(SCC(N)=O)nc2c(c1-c1ccncc1)CCCC2,> 0.0487
11,CCN(CC)CCN(C(=O)/C=C/c1cccs1)c1nc2ccc(Cl)cc2s1.Cl,< 0.0003
12,O=C1/C(=C/c2ccccc2Cl)N2CCC1CC2,0.0228
13,C=CCN1C(=O)C2(OCCCO2)c2ccccc21,0.0367
14,CN(C)C(=O)c1cc(C(=O)c2ccccc2F)c[nH]1,0.0389
15,Cc1ccc(NC(=O)COc2ccc3c(c2)OCO3)c(C)c1,0.0061
16,CC1=CC(C)(C)NC(=S)N1c1ccc(C)c(C)c1,0.0021
17,NC(=O)C1CCCN(S(=O)(=O)c2ccc3ccccc3c2)C1 (stereo not drawn),0.0131
18,CCOc1ccc(Nc2nc(N)c([N+](=O)[O-])c(N3CCN(C)CC3)n2)cc1,0.0519
19,CC(C)c1ccccc1NS(=O)(=O)c1cccs1,0.0282
20,CN(C)S(=O)(=O)c1cccc(NC(=O)c2cc(=O)[nH]c(=O)[nH]2)c1,> 0.0508
21,CCCCN(C)C(=O)C1CCN(Cc2cccnc2)CC1,> 0.0434
22,O=[N+]([O-])c1cccc(/C=C/c2ccc3cccc(O)c3n2)c1,< 0.0003
23,CC(=O)c1cccc(NC(=S)NCCc2ccc(F)cc2)c1,> 0.0475
24,O=C(Nc1ccccc1)OCCOc1cccc(Br)c1,0.0066
